The source of these data is patent US20100204265A1 (priority 2009, published 2010).

Where only a bound is given, the exact number is not on record here.

By EC50 is commonly meant the concentration giving half of the maximal effect. A higher EC50 goes with weaker potency.

The subject of this experiment is ET (Huh-lucubineo-ET) cell line harboring I389luc-ubi-neo/NS3-3′/ET HCV replicon. Put plainly: Replicon assay (HCV replicon, luciferase readout). It counts as cell-based. The conditions noted are these: Hepatitis C virus. As to the method:
A cell line, ET (Huh-lucubineo-ET) is used for screening of compounds for inhibiting HCV RNA dependent RNA polymerase. The ET cell line is stably transfected with RNA transcripts harboring a I389luc-ubi-neo/NS3-3′/ET; replicon with firefly luciferase-ubiquitin-neomycin phosphotransferase fusion protein and EMCV-IRES driven NS3-5B polyprotein containing the cell culture adaptive mutations (E1202G; T1280I; K1846T) (Krieger at al, 2001 and unpublished). The ET cells are grown in DMEM (Dulbeco's Modified Eagle's Medium), supplemented with 10% fetal calf serum, 2 mM Glutamine, Penicillin (100 IU/mL)/Streptomycin (100 μg/mL), 1× nonessential amino acids, and 250 μg/mL G418 (“Geneticin”). They are all available through Life Technologies (Bethesda, Md.). The cells are plated at 0.5−1.0×10^4 cells/well in the 96 well plates and incubated for 24 hrs before adding test compound. The compounds are added to the cells to achieve a final concentration of 0.1 nM to […] and a final DMSO (dimethylsulfoxide) concentration of 0.5%. Luciferase activity is measured 48-72 hours later by adding a lysis buffer and the substrate (Catalog number Glo-lysis buffer E2661 and Bright-Glo luciferase system E2620 Promega, Madison, Wis.). Cells should not be too confluent during the assay. Percent inhibition of replication data is plotted relative to no compound control. Under the same condition, cytotoxicity of the compounds are determined using cell proliferation reagent, WST-1 (Roche, Germany). The compounds showing antiviral activities, but no significant cytotoxicities are chosen to determine EC50 and TC50. For these determinations, a 10 point, 2-fold serial dilution for each compound was used, which spans a concentration range of 1000 fold. EC50 and similarly TC50 values were calculated by fitting % inhibition at each concentration to the following equation:
% inhibition=100%/[(EC50/[I])^b+1]
where b is Hill's coefficient.
In general terms: A replicon is a self-replicating genome or part of one, used to study replication in cells.
The compound `COC(=O)[C@H](CCCCNC(=O)OC(C)(C)C)NC(=O)Cc1cn2cc(-c3ccoc3)cc(C(F)(F)F)c2n1` (stereo in doubt) [Compound 153, 6-tert-Butoxycarbonylamino-2-[2-(6-furan-3-yl-8-trifluoromethyl-imidazo[1,2-a]pyridin-2-yl)-acetylamino]-hexanoic acid methyl ester] came in with an EC50 of 13.9 µM.
`COC(=O)[C@@H](NC(=O)Cc1cn2cc(-c3ccoc3)cc(C(F)(F)F)c2n1)C(C)(C)C` (stereo in doubt) [Compound 294, 2-[2-(6-Furan-3-yl-8-trifluoromethyl-imidazo[1,2-a]pyridin-2-yl)-acetylamino]-3,3-dimethyl-butyric acid methyl ester] came in with an EC50 of over 50 µM.
With `NC(=O)[C@H](CO)NC(=O)Cc1cn2cc(-c3ccoc3)cc(C(F)(F)F)c2n1` (stereo in doubt) [Compound 298, 2-[2-(6-Furan-3-yl-8-trifluoromethyl-imidazo[1,2-a]pyridin-2-yl)-acetylamino]-3-hydroxy-propionamide], the EC50 was over 50 µM.
The compound `O=C(N[C@@H]1CCN(C(=O)c2nc3c(C(F)(F)F)cc(-c4ccoc4)cn3c2Cl)C1)OCCCl` (stereo in doubt) [Compound 321, [1-(3-Chloro-6-furan-3-yl-8-trifluoromethyl-imidazo[1,2-a]pyridine-2-carbonyl)-pyrrolidin-3-yl]-carbamic acid 2-chloro-ethyl ester] showed a concentration giving a half-maximal response (EC50) of over 50 µM.
With `O=C(O)c1nc2c(C(F)(F)F)cc(-c3ccoc3)cn2c1Cl` [Compound 101, 3-Chloro-6-furan-3-yl-8-trifluoromethyl-imidazo[1,2-a]pyridine-2-carboxylic acid], the response was half-maximal at 7.01 µM (EC50).
As to `O=C(c1nc2c(C(F)(F)F)cc(-c3ccoc3)cn2c1Cl)N1CCC(c2ccccc2F)C(O)C1` (centres unmarked) [Compound 102, (3-Chloro-6-furan-3-yl-8-trifluoromethyl-imidazo[1,2-a]pyridin-2-yl)-[4-(2-fluoro-phenyl)-3-hydroxy-piperidin-1-yl]-methanone], the EC50 is 0.0469 µM. Against the preceding compound, the EC50 is about 150-fold lower.
`O=C(c1nc2c(C(F)(F)F)cc(-c3cn[nH]c3)cn2c1Cl)N1CC=C(c2ccccc2F)C1` [Compound 103, [3-Chloro-6-(1H-pyrazol-4-yl)-8-trifluoromethyl-imidazo[1,2-a]pyridin-2-yl]-[3-(2-fluoro-phenyl)-2,5-dihydro-pyrrol-1-yl]-methanone]: the concentration for a half-maximal effect (EC50) was 0.0389 µM.
`O=C(c1nc2c(C(F)(F)F)cc(-c3cn[nH]c3)cn2c1Cl)N1CC=C(c2c[nH]cn2)C1` [Compound 104, [3-Chloro-6-(1H-pyrazol-4-yl)-8-trifluoromethyl-imidazo[1,2-a]pyridin-2-yl]-[3-(1H-imidazol-4-yl)-2,5-dihydro-pyrrol-1-yl]-methanone] registered an EC50 of 5.96 µM.
Then `O=C(c1nc2c(C(F)(F)F)cc(-c3cn[nH]c3)cn2c1Cl)N1CC=C(c2cncs2)C1` [Compound 105, [3-Chloro-6-(1H-pyrazol-4-yl)-8-trifluoromethyl-imidazo [1,2-a]pyridin-2-yl]-(3-thiazol-5-yl-2,5-dihydro-pyrrol-1-yl)-methanone], with 0.13 µM; and `O=C(c1nc2c(C(F)(F)F)cc(-c3ccoc3)cn2c1Cl)N1CC=C(c2cncs2)C1` [Compound 106, (3-Chloro-6-furan-3-yl-8-trifluoromethyl-imidazo[1,2-a]pyridin-2-yl)-(3-thiazol-5-yl-2,5-dihydro-pyrrol-1-yl)-methanone], with 0.0886 µM; and `O=C(c1nc2c(C(F)(F)F)cc(-c3cn[nH]c3)cn2c1Cl)N1CC=C(c2cnsc2)C1` [Compound 107, [3-Chloro-6-(1H-pyrazol-4-yl)-8-trifluoromethyl-imidazo [1,2-a]pyridin-2-yl]-(3-isothiazol-4-yl-2,5-dihydro-pyrrol-1-yl)-methanone], with 0.241 µM.
For the compound `CS(=O)(=O)N1CCN(C(=O)c2nc3c(C(F)(F)F)cc(-c4ccoc4)cn3c2Cl)CC1` [Compound 108, (3-Chloro-6-furan-3-yl-8-trifluoromethyl-imidazo[1,2-a]pyridin-2-yl)-(4-methanesulfonyl-piperazin-1-yl)-methanone], the EC50 amounted to 24.1 µM.
Regarding `O=C(Cc1cn2cc(-c3ccoc3)cc(C(F)(F)F)c2n1)N1CCN(c2nccs2)CC1` [Compound 109, 2-(6-Furan-3-yl-8-trifluoromethyl-imidazo[1,2-a]pyridin-2-yl)-1-(4-thiazol-2-yl-piperazin-1-yl)-ethanone], the EC50 was over 50 µM.
Compound `O=C(Cc1cn2cc(-c3ccoc3)cc(C(F)(F)F)c2n1)N1CCCCC1c1ccccc1` (centres unmarked) [Compound 110, 2-(6-Furan-3-yl-8-trifluoromethyl-imidazo[1,2-a]pyridin-2-yl)-1-(2-phenyl-piperidin-1-yl)-ethanone] displayed an EC50 of 49 µM.
As to `O=C(c1nc2c(C(F)(F)F)cc(-c3ccoc3)cn2c1Cl)N1CC=C(c2ncc[nH]2)CC1` [Compound 111, (3-Chloro-6-furan-3-yl-8-trifluoromethyl-imidazo[1,2-a]pyridin-2-yl)-[4-(1H-imidazol-2-yl)-3,6-dihydro-2H-pyridin-1-yl]-methanone], the EC50 is over 50 µM.
The same measure for `O=C(c1nc2c(C(F)(F)F)cc(-c3cn[nH]c3)cn2c1Cl)N1CC=C(c2cn[nH]c2)CC1` [Compound 112, [3-Chloro-6-(1H-pyrazol-4-yl)-8-trifluoromethyl-imidazo[1,2-a]pyridin-2-yl]-[4-(1H-pyrazol-4-yl)-3,6-dihydro-2H-pyridin-1-yl]-methanone]: 0.368 µM; for `O=C(Cc1cn2cc(-c3ccoc3)cc(C(F)(F)F)c2n1)N1Cc2ccccc2C1` [Compound 113, 1-(1,3-Dihydro-isoindol-2-yl)-2-(6-furan-3-yl-8-trifluoromethyl-imidazo[1,2-a]pyridin-2-yl)-ethanone]: 8.63 µM; for `O=C(c1nc2c(C(F)(F)F)cc(-c3ccoc3)cn2c1Cl)N1CCC(N2CCCCC2=O)CC1` [Compound 114, 1′-(3-Chloro-6-furan-3-yl-8-trifluoromethyl-imidazo[1,2-a]pyridine-2-carbonyl)-[1,4′]bipiperidinyl-2-one]: 1.33 µM.
Regarding `CCOc1cccnc1C1=CCN(C(=O)c2nc3c(C(F)(F)F)cc(-c4ccoc4)cn3c2Cl)CC1` [Compound 115, (3-Chloro-6-furan-3-yl-8-trifluoromethyl-imidazo[1,2-a]pyridin-2-yl)-(3-ethoxy-3′,6′-dihydro-2′H-[2,4′]bipyridinyl-1′-yl)-methanone], a half-maximal effect (EC50) was put at 22.5 µM.
With `O=C(c1cc2c(C(F)(F)F)cc(-c3cccs3)nc2[nH]1)N1CC=C(c2ncccc2F)CC1` [Compound 116, (3-Fluoro-3′,6′-dihydro-2′H-[2,4′]bipyridinyl-1′-yl)-(6-thiophen-2-yl-4-trifluoromethyl-1H-pyrrolo[2,3-b]pyridin-2-yl)-methanone], the 50% effective concentration (EC50) came out at 24.4 µM.
Regarding `O=C(c1cc2nc(-c3cccs3)cc(C(F)(F)F)c2[nH]1)N1CC=C(c2ncccc2F)CC1` [Compound 117, (3-Fluoro-3′,6′-dihydro-2′H-[2,4′]bipyridinyl-1′-yl)-(5-thiophen-2-yl-7-trifluoromethyl-1H-pyrrolo[3,2-b]pyridin-2-yl)-methanone], the EC50 came to 23.9 µM. The EC50 values of the last two compounds are within 1.5-fold of each other.
As for `O=C(c1nc2c(C(F)(F)F)cc(-c3nccs3)cn2c1Cl)N1CC=C(c2ncccc2F)CC1` [Compound 118, (3 -Chloro-6-thiazol-2-yl-8-trifluoromethyl-imidazo[1,2-a]pyridin-2-yl)-(3-fluoro-3′,6′-dihydro-2′H-[2,4′]bipyridinyl-1′-yl)-methanone], the EC50 came out at 0.655 µM.
With `O=C(c1nc2c(C(F)(F)F)cc(-c3cncs3)cn2c1Cl)N1CC=C(c2ncccc2F)CC1` [Compound 119, (3-Chloro-6-thiazol-5-yl-8-trifluoromethyl-imidazo[1,2-a]pyridin-2-yl)-(3-fluoro-3′,6′-dihydro-2′H-[2,4′]bipyridinyl-1′-yl)-methanone], the EC50 amounted to 0.354 µM.
`O=C(c1nc2c(C(F)(F)F)cc(-c3cscn3)cn2c1Cl)N1CC=C(c2ncccc2F)CC1` [Compound 120, (3-Chloro-6-thiazol-4-yl-8-trifluoromethyl-imidazo[1,2-a]pyridin-2-yl)-(3-fluoro-3′,6′-dihydro-2′H-[2,4′]bipyridinyl-1′-yl)-methanone] showed an EC50 of 3.04 µM. This EC50 lies about 8.6-fold higher than the previous one.
The same measure for `O=C(c1nc2c(C(F)(F)F)cc(C3=CCNC3)cn2c1Cl)N1CC=C(c2ncccc2F)CC1` [Compound 121, [3-Chloro-6-(2,5-dihydro-1H-pyrrol-3-yl)-8-trifluoromethyl-imidazo[1,2-a]pyridin-2-yl]-(3-fluoro-3′,6′-dihydro-2′H-[2,4′]bipyridinyl-1′-yl)-methanone]: 2.54 µM; for `O=C(c1nc2c(C(F)(F)F)cc(-c3c[nH]cn3)cn2c1Cl)N1CC=C(c2ncccc2F)CC1` [Compound 122, [3-Chloro-6-(1H-imidazol-4-yl)-8-trifluoromethyl-imidazo[1,2-a]pyridin-2-yl]-(3-fluoro-3′,6′-dihydro-2′H-[2,4′]bipyridinyl-1′-yl)-methanone]: 5.89 µM.
